Test results as given in patent US9393232B2 (BeiGene, Ltd., priority 2013, dated 2016).

What follows are compounds tested on MV4-11 (assay: MV4-11 (3 Days) EC50). Conditions: not given.
Assay type: cell-based

| EC50 [nM] | SMILES |
| --- | --- |
| 39 | Cc1noc(C)c1-c1ccc2c(c1)C(c1ccsc1)(N1CCC[C@@H](O)C1)C(=O)N2 (single isomer, unassigned) [Compound 4.9b] |

Same assay, conditions: Homo sapiens, MV4-11, 72 h

| EC50 [nM] | SMILES |
| --- | --- |
| 54 | Cc1noc(C)c1-c1ccc2c(c1)C(c1ccsc1)(N1CCC[C@@H](O)C1)C(=O)N2 (single isomer, unassigned) [Compound 4.9a] |
| 72 | Cc1noc(C)c1-c1ccc2c(c1)C(c1ccsc1)(N1CCC[C@H](O)C1)C(=O)N2 (single isomer, unassigned) [Compound 4.10a] |

The compounds below were run against Recombinant human BRD4(1-477) (Homo sapiens (Human), UniProt O60885) (assay: BRD4 TR-FRET biochemical IC50 assay). Conditions: TR-FRET, tetra-acetylated histone peptide; read-out: BRD4 IC50.
Assay type: binding

| SMILES | IC50 [nM] |
| --- | --- |
| Cc1noc(C)c1-c1ccc2c(c1)C(c1ccccc1)(N1CCN(CCO)CC1)C(=O)N2 (centres unmarked) [Compound 2.48, 5-(3,5-Dimethylisoxazol-4-yl)-3-(4-(2-hydroxyethyl)piperazin-1-yl)-3-phenylindolin-2-one] | 80 |
| Cc1noc(C)c1-c1ccc2c(c1)C(c1ccccc1)(N1CCN(CCCO)CC1)C(=O)N2 (centres unmarked) [Compound 2.49, 5-(3,5-Dimethylisoxazol-4-yl)-3-(4-(3-hydroxypropyl)piperazin-1-yl)-3-phenylindolin-2-one] | 84 |
| Cc1noc(C)c1-c1ccc2c(c1)C(c1ccccc1)(N1CCC[C@H]1CO)C(=O)N2 (some centres unmarked) [Compound 2.53, 5-(3,5-Dimethylisoxazol-4-yl)-3-((s)-2-(hydroxymethyl)pyrrolidin-1-yl)-3-phenylindolin-2-one] | 90 |
| Cc1noc(C)c1-c1ccc2c(c1)C(c1ccccc1)(N1CCC[C@@H]1CO)C(=O)N2 (some centres unmarked) [Compound 2.55, 5-(3,5-Dimethylisoxazol-4-yl)-3-((r)-2-(hydroxymethyl)pyrrolidin-1-yl)-3-phenylindolin-2-one] | 110 |
| COC(=O)[C@@H](Cc1cnc[nH]1)NC1(c2ccccc2)C(=O)Nc2ccc(-c3c(C)noc3C)cc21 (stereo partly drawn) [Compound 2.56, (2R)-Methyl 2-(5-(3,5-dimethylisoxazol-4-yl)-2-oxo-3-phenylindolin-3-ylamino)-3-(1h-imidazol-5-yl)propanoate] | 260 |
| COC(=O)[C@H](Cc1cnc[nH]1)NC1(c2ccccc2)C(=O)Nc2ccc(-c3c(C)noc3C)cc21 (stereo partly drawn) [Compound 2.57, (2S)-Methyl 2-(5-(3,5-dimethylisoxazol-4-yl)-2-oxo-3-phenylindolin-3-ylamino)-3-(1h-imidazol-5-yl)propanoate] | 90 |
| Cc1noc(C)c1-c1ccc2c(c1)C(N)(c1ccc(F)cc1)C(=O)N2 (centres unmarked) [Compound 2.59, 3-amino-5-(3,5-dimethylisoxazol-4-yl)-3-(4-fluorophenyl)indolin-2-one] | 97 |
| Cc1noc(C)c1-c1ccc2c(c1)C(CC(=O)O)(c1ccccc1)C(=O)N2 (centres unmarked) [Compound 3.4, 2-(5-(3,5-dimethylisoxazol-4-yl)-2-oxo-3-phenylindolin-3-yl)acetic acid] | 6100 |
| CC(=O)CC1(O)C(=O)Nc2ccc(-c3c(C)noc3C)cc21 (centres unmarked) [Compound 4.2, 5-(3,5-dimethylisoxazol-4-yl)-3-hydroxy-3-(2-oxopropyl)indolin-2-one] | 670 |
| Cc1noc(C)c1-c1ccc2c(c1)C(NCCO)(c1ccsc1)C(=O)N2 (centres unmarked) [Compound 4.3, 5-(3,5-Dimethylisoxazol-4-yl)-3-(2-hydroxyethylamino)-3-(thiophen-3-yl)indolin-2-one] | 49 |
| Cc1noc(C)c1-c1ccc2c(c1)C(N)(c1ccsc1)C(=O)N2 (centres unmarked) [Compound 4.4, 3-AMINO-5-(3,5-DIMETHYLISOXAZOL-4-YL)-3-(THIOPHEN-3-YL)INDOLIN-2-ONE] | 400 |
| Cc1noc(C)c1-c1ccc2c(c1)C(c1ccsc1)(N1CCC(O)CC1)C(=O)N2 (centres unmarked) [Compound 4.5, 5-(3,5-DIMETHYLISOXAZOL-4-YL)-3-(4-HYDROXYPIPERIDIN-1-YL)-3-(THIOPHEN-3-YL)INDOLIN-2-ONE] | 25 |
| Cc1noc(C)c1-c1ccc2c(c1)C(c1ccsc1)C(=O)N2 (centres unmarked) [Compound 4.11, 5-(3,5-Dimethylisoxazol-4-yl)-3-(thiophen-3-yl)indolin-2-one] | 120 |
| COc1cc(-c2c(C)noc2C)cc2c1NC(=O)C2(O)c1ccccc1 (centres unmarked) [Compound 5.1, 5-(3,5-Dimethylisoxazol-4-yl)-3-hydroxy-7-methoxy-3-phenylindolin-2-one] | 450 |
